pEC50: −log10 of the molar value.
The molecules below were run on M17—3TAU(P301L) cells (assay: Neuroblastoma tauopathy model: inhibition of TAU-induced cytotoxicity (LDH)). Details: Homo sapiens, 168 h; inhibition of TAU-induced toxicity (LDH), 7 days differentiation with retinoic acid.
Format: cell-based
Method in brief: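 BE-M17 neuroblastoma cells stably expressing human TAU-P301L, differentiated with RA (2.5 μM in added medium) for 7 days at 37 °C with compounds at a range of concentrations. Cytotoxicity as supernatant LDH over total LDH (Cytotox 96); EC50 from dose-dependent inhibition curve.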
`COc1cc(CCN2CCN(c3nc(-c4cccc(C#N)c4)ns3)CC2)ccn1` [Example 117, 3-(5-{4-[2-(2-Methoxy-pyridin-4-yl)-ethyl]-piperazin-1-yl}-[1,2,4]thiadiazol-3-yl)-benzonitrile] gave a pEC50 of 8.24.
`Clc1ccc(-c2nsc(N3CCN(CCc4ccccc4)CC3)n2)nc1` [Example 121, 1-[3-(5-Chloro-pyridin-2-yl)-[1,2,4]thiadiazol-5-yl]-4-phenethyl-piperazine] gave a pEC50 of 7.46.
In the case of `Fc1ccc(-c2nsc(N3CCN(CCc4ccc(Cl)cc4)CC3)n2)cc1F` [Example 104, 1-[2-(4-Chloro-phenyl)-ethyl]-4-[3-(3,4-difluoro-phenyl)-[1,2,4]thiadiazol-5-yl]-piperazine], the pEC50 was 7.95.
`Clc1ccc(CCN2CCN(c3nc(-c4ccnc(Cl)c4)ns3)CC2)cc1` [Example 169, 5-(4-(4-chlorophenethyl)piperazin-1-yl)-3-(2-chloropyridin-4-yl)-1,2,4-thiadiazole] gave a pEC50 of 7.98.
`Clc1cncc(-c2nsc(N3CCN(CCC4CCOCC4)CC3)n2)c1` [Example 166, 3-(5-chloropyridin-3-yl)-5-(4-(2-(tetrahydro-2H-pyran-4-yl)ethyl)piperazin-1-yl)-1,2,4-thiadiazole] was tested, and the pEC50 was 9.15.
Molecule `FC(F)(F)c1ccc(CCN2CCN(c3nc(-c4cccc(Cl)c4)ns3)CC2)cc1` [Example 145, 1-[3-(3-Chloro-phenyl)-[1,2,4]thiadiazol-5-yl]-4-[2-(4-trifluoromethyl-phenyl)-ethyl]-piperazine] has a pEC50 of 6.34.
`Fc1ccccc1CCN1CCN(c2nc(-c3ccc(Cl)cc3)ns2)CC1` [Example 28, 1-[3-(4-Chloro-phenyl)-[1,2,4]thiadiazol-5-yl]-4-[2-(2-fluoro-phenyl)-ethyl]-piperazine] was tested, and the pEC50 was 7.34.
In the case of `COc1cc(CCN2CCN(c3nc(-c4cccc(Cl)c4)ns3)CC2)ccn1` [Example 89, 1-[3-(3-Chloro-phenyl)-[1,2,4]thiadiazol-5-yl]-4-[2-(2-methoxy-pyridin-4-yl)-ethyl]-piperazine], the pEC50 was 8.80.
`CC(C)Oc1cccc(CCN2CCN(c3nc(-c4ccc(Cl)cc4)ns3)CC2)c1` [Example 51, 1-[3-(4-Chloro-phenyl)-[1,2,4]thiadiazol-5-yl]-4-[2-(3-isopropoxy-phenyl)-ethyl]-piperazine] gave a pEC50 of 6.82.
In the case of `Fc1cccc(-c2nsc(N3CCN(CCc4ccccc4)CC3)n2)c1` [Example 83, 1-[3-(3-Fluoro-phenyl)-[1,2,4]thiadiazol-5-yl]-4-phenethyl-piperazine], the pEC50 was 8.02.
Molecule `Clc1ccc(-c2nsc(N3CCN(CCc4ccccc4Cl)CC3)n2)cc1` [Example 29, 1-[2-(2-Chloro-phenyl)-ethyl]-4-[3-(4-chloro-phenyl)-[1,2,4]thiadiazol-5-yl]-piperazine] has a pEC50 of 8.89.
With `O=C(CN1CCN(c2nc(-c3ccc(Cl)cc3)ns2)CC1)c1cccc(F)c1` [Example 62, 2-{4-[3-(4-Chloro-phenyl)-[1,2,4]thiadiazol-5-yl]-piperazin-1-yl}-1-(3-fluoro-phenyl)-ethanone] the pEC50 was 7.16.
With `COc1cccc(CCN2CCN(c3nc(-c4ccc(C)cc4)ns3)CC2)c1` [Example 16, 1-[2-(3-Methoxy-phenyl)-ethyl]-4-(3-p-tolyl-[1,2,4]thiadiazol-5-yl)-piperazine] the pEC50 was 7.19.
With `COc1cccc(CCN2CCN(c3nc(-c4cccs4)ns3)CC2)c1` [Example 33, 1-[2-(3-Methoxy-phenyl)-ethyl]-4-(3-thiophen-2-yl-[1,2,4]thiadiazol-5-yl)-piperazine] the pEC50 was 6.80.
Work on `Clc1cncc(-c2nsc(N3CCN(CCN4CCCCC4)CC3)n2)c1` [Example 163, 3-(5-chloropyridin-3-yl)-5-(4-(2-(piperidin-1-yl)ethyl)piperazin-1-yl)-1,2,4-thiadiazole] yielded a pEC50 of 7.89.
`Fc1ccc(CCN2CCN(c3nc(-c4cccc(Cl)c4)ns3)CC2)cc1` [Example 85, 1-[3-(3-Chloro-phenyl)-[1,2,4]thiadiazol-5-yl]-4-[2-(4-fluoro-phenyl)-ethyl]-piperazine] gave a pEC50 of 8.51.
`Fc1ccc(-c2nsc(N3CCN(CCc4ccccc4)CC3)n2)cc1F` [Example 101, 1-[3-(3,4-Difluoro-phenyl)-[1,2,4]thiadiazol-5-yl]-4-phenethyl-piperazine] showed a pEC50 of 8.49.
`COc1cccc(C(=O)CN2CCN(c3nc(-c4ccc(Cl)cc4)ns3)CC2)c1` [Example 60, 2-{4-[3-(4-Chloro-phenyl)-[1,2,4]thiadiazol-5-yl]-piperazin-1-yl}-1-(3-methoxy-phenyl)-ethanone] gave a pEC50 of 7.39.
`N#Cc1ccc(-c2nsc(N3CCN(CCc4ccccc4)CC3)n2)cc1` [Example 108, 4-[5-(4-Phenethyl-piperazin-1-yl)-[1,2,4]thiadiazol-3-yl]-benzonitrile] gave a pEC50 of 8.10.
With `Clc1ccc(CCN2CCN(c3nc(-c4cc(Cl)ccn4)ns3)CC2)cc1` [Example 123, 1-[2-(4-Chloro-phenyl)-ethyl]-4-[3-(4-chloro-pyridin-2-yl)-[1,2,4]thiadiazol-5-yl]-piperazine] the pEC50 was 7.02.
Work on `COc1cccc(C(F)CN2CCN(c3nc(-c4ccc(Cl)cc4)ns3)CC2)c1` (stereo not shown) [Example 65, 1-[3-(4-Chloro-phenyl)-[1,2,4]thiadiazol-5-yl]-4-[2-fluoro-2-(3-methoxy-phenyl)-ethyl]-piperazine] yielded a pEC50 of 7.22.
`N#Cc1ccc(-c2nsc(N3CCN(CCc4cccc(C(F)(F)F)c4)CC3)n2)cc1` [Example 143, 4-(5-{4-[2-(3-Trifluoromethyl-phenyl)-ethyl]-piperazin-1-yl}-[1,2,4]thiadiazol-3-yl)-benzonitrile] showed a pEC50 of 6.85.
`OC(CN1CCN(c2nc(-c3ccc(Cl)cc3)ns2)CC1)c1cccc(F)c1` (stereo not shown) [Example 63, 2-{4-[3-(4-Chloro-phenyl)-[1,2,4]thiadiazol-5-yl]-piperazin-1-yl}-1-(3-fluoro-phenyl)-ethanol] gave a pEC50 of 8.13.
`Cc1ccccc1CN1CCN(c2nc(-c3cccc(Cl)c3)ns2)CC1` [Example 92, 1-[3-(3-Chloro-phenyl)-[1,2,4]thiadiazol-5-yl]-4-(2-methyl-benzyl)-piperazine] showed a pEC50 of 7.36.
`Cc1ccccc1CN1CCN(c2nc(-c3cc(Cl)ccn3)ns2)CC1` [Example 128, 1-[3-(4-Chloro-pyridin-2-yl)-[1,2,4]thiadiazol-5-yl]-4-(2-methyl-benzyl)-piperazine] showed a pEC50 of 6.96.
`FC(F)Oc1ccc(CCN2CCN(c3nc(-c4ccc(Cl)cc4)ns3)CC2)cc1` [Example 70, 1-[3-(4-Chloro-phenyl)-[1,2,4]thiadiazol-5-yl]-4-[2-(4-difluoromethoxy-phenyl)-ethyl]-piperazine] gave a pEC50 of 6.71.
Work on `COc1ccc(CCN2CCN(c3nc(-c4ccc(C#N)cc4)ns3)CC2)cc1` [Example 78, 4-(5-{4-[2-(4-Methoxy-phenyl)-ethyl]-piperazin-1-yl}-[1,2,4]thiadiazol-3-yl)-benzonitrile] yielded a pEC50 of 8.68.
`Clc1ccc(-c2nsc(N3CCN(CC4(c5ccc(Cl)cc5)CC4)CC3)n2)cc1` [Example 68, 1-[1-(4-Chloro-phenyl)-cyclopropylmethyl]-4-[3-(4-chloro-phenyl)-[1,2,4]thiadiazol-5-yl]-piperazine] gave a pEC50 of 6.05.
`COc1ccc(CCN2CCN(c3nc(-c4cccc(C#N)c4)ns3)CC2)cc1` [Example 81, 3-(5-{4-[2-(4-Methoxy-phenyl)-ethyl]-piperazin-1-yl}-[1,2,4]thiadiazol-3-yl)-benzonitrile] gave a pEC50 of 9.22.
`COc1ccc(CCN2CCN(c3nc(-c4ccc(Cl)cn4)ns3)CC2)cc1` [Example 126, 1-[3-(5-Chloro-pyridin-2-yl)-[1,2,4]thiadiazol-5-yl]-4-[2-(4-methoxy-phenyl)-ethyl]-piperazine] was tested, and the pEC50 was 8.15.
In the case of `COc1cccc(C(O)CN2CCN(c3nc(-c4ccc(Cl)cc4)ns3)CC2)c1` (stereo not shown) [Example 61, 2-{4-[3-(4-Chloro-phenyl)-[1,2,4]thiadiazol-5-yl]-piperazin-1-yl}-1-(3-methoxy-phenyl)-ethanol], the pEC50 was 7.35.
Molecule `Fc1ccc(-c2nsc(N3CCN(CCC4CCCCC4)CC3)n2)cc1F` [Example 153, 1-(2-Cyclohexyl-ethyl)-4-[3-(3,4-difluoro-phenyl)-[1,2,4]thiadiazol-5-yl]-piperazine] has a pEC50 of 8.23.
With `FC(F)Oc1cccc(CCN2CCN(c3nc(-c4ccc(Cl)cc4)ns3)CC2)c1` [Example 69, 1-[3-(4-Chloro-phenyl)-[1,2,4]thiadiazol-5-yl]-4-[2-(3-difluoromethoxy-phenyl)-ethyl]-piperazine] the pEC50 was 7.36.
In the case of `COc1ccc(CCN2CCN(c3nc(-c4cnc(C)nc4)ns3)CC2)cc1` [Example 179, 5-(4-(4-methoxyphenethyl)piperazin-1-yl)-3-(2-methylpyrimidin-5-yl)-1,2,4-thiadiazole], the pEC50 was 8.47.
For `Fc1ccc(CCN2CCN(c3nc(-c4ccc(Cl)cn4)ns3)CC2)cc1F` [Example 139, 1-[3-(5-Chloro-pyridin-2-yl)-[1,2,4]thiadiazol-5-yl]-4-[2-(3,4-difluoro-phenyl)-ethyl]-piperazine], the pEC50 was 7.33.
`COc1ccc(CCCN2CCN(c3nc(-c4ccc(Cl)cc4)ns3)CC2)cc1` [Example 52, 1-[3-(4-Chloro-phenyl)-[1,2,4]thiadiazol-5-yl]-4-[3-(4-methoxy-phenyl)-propyl]-piperazine] showed a pEC50 of 6.49.
Molecule `COc1ccc(C(F)CN2CCN(c3nc(-c4ccc(Cl)cc4)ns3)CC2)cc1` (stereo not shown) [Example 64, 1-[3-(4-Chloro-phenyl)-[1,2,4]thiadiazol-5-yl]-4-[2-fluoro-2-(4-methoxy-phenyl)-ethyl]-piperazine] has a pEC50 of 8.01.
`Cc1ccc(-c2nsc(N3CCN(CCc4ccc(F)c(F)c4)CC3)n2)cn1` [Example 148, 1-[2-(3,4-Difluoro-phenyl)-ethyl]-4-[3-(6-methyl-pyridin-3-yl)-[1,2,4]thiadiazol-5-yl]-piperazine] showed a pEC50 of 7.17.
`COc1ccc(CCN2CCN(c3nc(-c4cc(Cl)cc(Cl)c4)ns3)CC2)cc1` [Example 46, 1-[3-(3,5-Dichloro-phenyl)-[1,2,4]thiadiazol-5-yl]-4-[2-(4-methoxy-phenyl)-ethyl]-piperazine] gave a pEC50 of 7.51.
Molecule `COc1ccc(CCN2CCN(c3nc(-c4ccc(F)c(F)c4)ns3)CC2)cc1` [Example 102, 1-[3-(3,4-Difluoro-phenyl)-[1,2,4]thiadiazol-5-yl]-4-[2-(4-methoxy-phenyl)-ethyl]-piperazine] has a pEC50 of 9.05.

Source: patent publication US9023852B2, “1, 2, 4-thiadiazol-5-ylpiperazine derivatives useful in the treatment of neurodegenerative diseases” (Remynd NV, priority 2011, dated 2015)
